Where two headings read alike, the source gives them in different places.
Tests used:
[1] = target: norepinephrine transporter (NET) (Rattus norvegicus, UniProt Q63380); test: [3H]norepinephrine (NE) uptake inhibition in rat brain synaptosomes; type: biochemical; settings: for Emax: read-out: NET Uptake Emax; for IC50: read-out: NET Uptake IC50, mean ± S.D., n = 3; for NE Uptake Emax / EC50: rat brain synaptosomes, 10 nM [3H]norepinephrine, mean ± SD; for EC50: read-out: NE Uptake EC50
Procedure: Uptake inhibition assay for the norepinephrine transporter was conducted in rat brain synaptosomes as described elsewhere with minor modifications (Rothman et al., Synapse 39, 32-41 (2001)). Freshly removed whole brain minus cerebellum and caudate was homogenized in 10% ice-cold sucrose with 12 strokes of a hand-held Potter-Elvehjem homogenizer followed by centrifugation at 1000×g for 10 minutes. The supernatants were saved on ice and used immediately. Transporter activity at NET was assessed using 10 nM [^3H]norepinephrine. The assay buffer was Krebs-phosphate buffer containing 154.4 mM NaCl, 2.9 mM KCl, 1.1 mM CaCl2, 0.83 mM MgCl2, 5 mM glucose, 1 mg/mL ascorbic acid, and 50 μM pargyline. […] Uptake inhibition assays were conducted at 37° C. and were initiated by adding 100 μL of tissue to 900 μL assay buffer containing test drug and [^3H]norepinephrine. Test drugs were diluted in assay buffer containing 1 mg/mL bovine serum albumin. Nonspecific uptake was measured by incubating in the presence of 10 μM indatraline. The reactions were stopped after 10 minutes by rapid vacuum filtration with a cell harvester (BRANDEL) over GF/B filters (Whatman) presoaked in wash buffer maintained at 25° C. (10 mM Tris-HCl, pH 7.4/150 mM NaCl). Filters were rinsed with 6 mL wash buffer and retained tritium was quantified by a MicroBeta liquid scintillation counter (PerkinElmer) after overnight extraction in 0.6 mL of liquid scintillation cocktail (Cytoscint, ICN). The data from three experiments were pooled and fit to a dose-response curve equation (using Kaleidagraph), to yield an Emax and EC50 value.

[2] = target: T1, dopamine transporter (DAT) (Rattus norvegicus (Rat), UniProt P23977); test: [3H]dopamine (DA) uptake inhibition in rat brain (caudate) synaptosomes; type: biochemical; settings: for DA Uptake Emax / EC50: rat caudate synaptosomes, 5 nM [3H]dopamine, mean ± SD
Procedure: Uptake inhibition assay for the dopamine transporter was conducted in rat brain synaptosomes as described elsewhere with minor modifications (Rothman et al., Synapse 39, 32-41 (2001)). Freshly removed caudate was homogenized in 10% ice-cold sucrose with 12 strokes of a hand-held Potter-Elvehjem homogenizer followed by centrifugation at 1000×g for 10 min. The supernatants were saved on ice and used immediately. Transporter activity was assessed using 5 nM [^3H]dopamine. The assay buffer was Krebs-phosphate buffer containing 154.4 mM NaCl, 2.9 mM KCl, 1.1 mM CaCl2, 0.83 mM MgCl2, 5 mM glucose, 1 mg/mL ascorbic acid, and 50 μM pargyline. The selectivity of the uptake assay for DAT was optimized by including 100 nM citalopram and 100 nM desipramine as blockers of SERT and NET in the sucrose solution and assay buffer. Uptake inhibition assays were conducted at 25° C. and were initiated by adding 100 μl of tissue to 900 μL assay buffer containing test drug and [^3H]dopamine. Test drugs were diluted in assay buffer containing 1 mg/mL bovine serum albumin. Nonspecific uptake was measured by incubating in the presence of 10 μM indatraline. The reactions were stopped after 15 minutes by rapid vacuum filtration with a cell harvester (BRANDEL) over GF/B filters (Whatman) presoaked in wash buffer maintained at 25° C. (10 mM Tris-HCl, pH 7.4/150 mM NaCl). Filters were rinsed with 6 mL wash buffer and retained tritium was quantified by a MicroBeta liquid scintillation counter (PerkinElmer) after overnight extraction in 0.6 mL of liquid scintillation cocktail (Cytoscint, ICN). The data from three experiments were pooled and fit to a dose-response curve equation (using Kaleidagraph), to yield an Emax and EC50 value.
(§1) All of the test compounds were synthesized as described herein. Next, 8-point dose-response curves were generated for each compound (1-20,000 nM) in the [^3H]DA uptake assay. The data from three experiments were pooled and fit to a dose-response curve equation (using KaleidaGraph; Synergy Software, Reading, Pa.) to yield an Emax and IC50 value. […] Selected compounds were also tested for their ability to inhibit [^3H]WIN35428 binding to rat caudate DAT.

[3] = target: DAT (Rattus norvegicus (Rat), UniProt P23977); test: Inhibition of [3H]WIN35428 binding to rat caudate DAT; settings: [3H]WIN35428, mean ± S.D., n = 3
Procedure: as §1, with “Next, 8-point dose-response curves were generated for each compound (1-20,000 nM) in the [^3H]DA uptake assay.” left out

[4] = target: serotonin transporter (SERT) (Rattus norvegicus (Rat), UniProt P31652); test: [3H]serotonin (5-HT) uptake inhibition in rat brain synaptosomes; type: biochemical; settings: for Emax: read-out: SERT Uptake Emax; for 5HT Uptake Emax / EC50: rat brain synaptosomes, 5 nM [3H]serotonin, mean ± SD
Procedure: Uptake inhibition assay for the serotonin transporter was conducted in rat brain synaptosomes as described elsewhere with minor modifications (Rothman et al., Synapse 39, 32-41 (2001)). Freshly removed whole brain minus cerebellum and caudate was homogenized in 10% ice-cold sucrose with 12 strokes of a hand-held Potter-Elvehjem homogenizer followed by centrifugation at 1000×g for 10 min. The supernatants were saved on ice and used immediately. Transporter activity at SERT was assessed using 5 nM [^3H]serotonin. The assay buffer was Krebs-phosphate buffer containing 154.4 mM NaCl, 2.9 mM KCl, 1.1 mM CaCl2, 0.83 mM MgCl2, 5 mM glucose, 1 mg/mL ascorbic acid, and 50 μM pargyline. […] Uptake inhibition assays were conducted at 25° C. and were initiated by adding 100 μL of tissue to 900 μL assay buffer containing test drug and [^3H]serotonin. Test drugs were diluted in assay buffer containing 1 mg/mL bovine serum albumin. Nonspecific uptake was measured by incubating in the presence of 10 μM indatraline. The reactions were stopped after 30 min by rapid vacuum filtration with a cell harvester (BRANDEL) over GF/B filters (Whatman) presoaked in wash buffer maintained at 25° C. (10 mM Tris-HCl, pH 7.4/150 mM NaCl). Filters were rinsed with 6 mL wash buffer and retained tritium was quantified by a MicroBeta liquid scintillation counter (PerkinElmer) after overnight extraction in 0.6 mL of liquid scintillation cocktail (Cytoscint, ICN). The data from three experiments were pooled and fit to a dose-response curve equation (using Kaleidagraph), to yield an Emax and EC50 value.

[5] = target: T1, dopamine transporter (DAT); test: Dopamine transporter-mediated [3H]MPP+ release (d-amphetamine-induced, shift experiments) in rat caudate synaptosomes; type: biochemical; settings: for Apparent Kc: [Blocker]/((EC50-2/EC50-1) − 1); for Emax: read-out: d-Amphetamine Emax in presence of blocker
[6] = mean ± S.D., n = 3, read-out: DAT Uptake Emax
[7] = values in Table 9, read-out: Emax for DAT Uptake Inhibition
[8] = [3H]MPP+ release, blocker concentration per row, mean ± S.D., n = 3
[9] = unit as printed in head (text gives 1100 nM where table prints 1.1)

Chain of serotonin transporter (SERT) (P31652 whole entry): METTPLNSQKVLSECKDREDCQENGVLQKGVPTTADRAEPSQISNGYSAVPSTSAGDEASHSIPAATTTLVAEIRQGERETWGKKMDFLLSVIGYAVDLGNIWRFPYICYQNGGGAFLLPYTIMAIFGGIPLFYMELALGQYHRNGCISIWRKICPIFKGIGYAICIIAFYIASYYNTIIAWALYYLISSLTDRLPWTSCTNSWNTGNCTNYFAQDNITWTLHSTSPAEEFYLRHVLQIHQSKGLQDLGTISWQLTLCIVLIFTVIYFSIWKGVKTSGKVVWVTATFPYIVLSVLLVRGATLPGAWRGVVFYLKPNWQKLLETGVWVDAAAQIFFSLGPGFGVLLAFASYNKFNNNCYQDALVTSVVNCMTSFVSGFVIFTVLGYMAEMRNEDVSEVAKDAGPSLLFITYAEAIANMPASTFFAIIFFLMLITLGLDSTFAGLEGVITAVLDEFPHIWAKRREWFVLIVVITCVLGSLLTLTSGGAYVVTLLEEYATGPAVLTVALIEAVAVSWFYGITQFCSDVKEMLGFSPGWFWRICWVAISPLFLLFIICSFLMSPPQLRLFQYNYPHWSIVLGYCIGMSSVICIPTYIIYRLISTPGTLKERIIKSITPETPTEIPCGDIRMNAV
Chain of norepinephrine transporter (NET) (Q63380 1-617): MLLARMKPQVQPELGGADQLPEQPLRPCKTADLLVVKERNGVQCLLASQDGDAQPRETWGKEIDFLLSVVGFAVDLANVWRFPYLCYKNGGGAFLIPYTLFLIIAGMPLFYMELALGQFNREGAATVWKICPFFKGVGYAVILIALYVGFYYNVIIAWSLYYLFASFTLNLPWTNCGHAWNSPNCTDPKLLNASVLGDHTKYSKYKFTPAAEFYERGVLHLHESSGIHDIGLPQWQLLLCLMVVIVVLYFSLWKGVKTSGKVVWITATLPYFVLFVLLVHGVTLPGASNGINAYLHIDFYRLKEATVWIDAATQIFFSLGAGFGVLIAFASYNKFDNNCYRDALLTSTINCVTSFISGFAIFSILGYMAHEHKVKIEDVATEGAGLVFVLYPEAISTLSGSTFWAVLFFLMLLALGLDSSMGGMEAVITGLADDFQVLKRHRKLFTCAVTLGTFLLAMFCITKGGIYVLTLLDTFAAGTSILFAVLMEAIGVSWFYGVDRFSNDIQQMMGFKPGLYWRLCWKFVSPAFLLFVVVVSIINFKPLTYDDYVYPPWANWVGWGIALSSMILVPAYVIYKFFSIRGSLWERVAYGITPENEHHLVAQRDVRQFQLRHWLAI
Chain of DAT (P23977 whole entry): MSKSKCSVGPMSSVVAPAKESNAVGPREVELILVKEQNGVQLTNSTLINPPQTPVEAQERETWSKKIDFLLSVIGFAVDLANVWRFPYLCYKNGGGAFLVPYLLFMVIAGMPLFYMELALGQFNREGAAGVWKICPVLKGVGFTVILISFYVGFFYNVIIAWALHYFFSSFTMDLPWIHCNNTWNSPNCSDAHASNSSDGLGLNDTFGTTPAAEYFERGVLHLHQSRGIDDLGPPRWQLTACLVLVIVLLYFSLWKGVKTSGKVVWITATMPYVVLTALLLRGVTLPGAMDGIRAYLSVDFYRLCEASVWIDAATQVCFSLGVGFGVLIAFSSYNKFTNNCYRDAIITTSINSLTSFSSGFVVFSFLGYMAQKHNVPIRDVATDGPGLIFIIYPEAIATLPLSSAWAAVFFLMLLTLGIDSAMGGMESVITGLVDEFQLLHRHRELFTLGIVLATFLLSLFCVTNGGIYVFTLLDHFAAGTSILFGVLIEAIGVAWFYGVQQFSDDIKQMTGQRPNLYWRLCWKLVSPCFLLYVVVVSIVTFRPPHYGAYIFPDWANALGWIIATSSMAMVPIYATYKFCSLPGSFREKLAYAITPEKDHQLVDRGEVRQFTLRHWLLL
T1 sequence (P23977 whole entry): as above

Cc1cc(NS(C)(=O)=O)ccc1-c1nc(NCC(c2ccccc2)c2ccccc2)c2ccccc2n1 [Compound 52, N-(4-(4-((2,2-diphenylethyl)amino)quinazolin-2-yl)-3-methylphenyl)methanesulfonamide]
Emax [1]: 65 ± 3%
IC50 [1]: 144 ± 30 nM
Emax [2, 6]: 60 ± 2%
Emax [3]: 60 ± 7%
Emax ([4]; mean ± S.D., n = 3): 50 ± 2%

CS(=O)(=O)Nc1ccc(-c2nc(NCC(c3ccccc3)c3ccccc3)c3ccccc3n2)c(Cl)c1 [Compound 53, N-(3-chloro-4-(4-((2,2-diphenylethyl)amino)quinazolin-2-yl)phenyl)methanesulfonamide]
Emax [1]: 67 ± 2%
IC50 [1]: 47 ± 10 nM
Emax [2, 6]: 67 ± 1%
Emax [3]: 30 ± 3%
Emax ([4]; mean ± S.D., n = 3): 51 ± 2%

c1ccc(C(CNc2nc(-c3cnc4nccn4c3)nc3ccccc23)C2CCCCC2)cc1 (stereo not shown) [SRI-30517]
Emax [1]: 70 ± 2%
IC50 [1]: 95 ± 12 nM
Emax [2, 6]: 70 ± 1%
Emax [2, 7]: 70%
Apparent Kc ([5]; [3H]MPP+ release): 1600 nM
Emax [5, 8]: 104 ± 4%
Emax [3]: 43 ± 4%
IC50 [3, 9]: 160 ± 80 nM
Emax ([4]; mean ± S.D., n = 3): 54 ± 1%

Cl.Fc1ccc2c(NCC(c3ccccc3)c3ccccc3)nc(-c3ccc4nccn4c3)nc2c1 [SRI-31034]
Emax [1]: 63 ± 3%
IC50 [1]: 94 ± 22 nM
Emax ([2]; read-out: DAT Uptake Emax): 69 ± 1%
Emax ([2]; read-out: Emax for DAT Uptake Inhibition): 69%
Apparent Kc ([5]; [3H]MPP+ release): 3200 nM
Emax [5]: 104 ± 5%
DAT Binding Emax [3]: Inactive
DAT Binding IC50 [3, 9]: Inactive
Emax [4]: 49 ± 2%

CN(C)c1ncc(-c2nc(NCC(c3ccccc3)c3ccccc3)c3ccccc3n2)cn1 [SRI-29153]
Emax [1]: 73 ± 4%
IC50 [1]: 181 ± 46 nM
Emax [2, 6]: 73 ± 1%
Emax [2, 7]: 73%
Apparent Kc ([5]; [3H]MPP+ release): 1820 nM
Emax [5, 8]: 101 ± 3%
Emax [3]: 76 ± 2%
IC50 [3, 9]: 1700 ± 200 nM
Emax ([4]; mean ± S.D., n = 3): 55 ± 5%

OC(CNc1nc(-c2cnc3nccn3c2)nc2ccccc12)(c1ccccc1)c1ccccc1 [SRI-30508]
Emax [1]: 76 ± 9%
IC50 [1]: 69 ± 18 nM
Emax [2, 6]: 65 ± 1%
Emax [3]: 34 ± 3%
IC50 [3, 9]: 150 ± 90 nM
Emax ([4]; mean ± S.D., n = 3): 56 ± 1%

CN(C)c1ncc(-c2nc(NCC(O)(c3ccccc3)c3ccccc3)c3ccccc3n2)cn1 [SRI-29982]
Emax [1]: 71 ± 2%
IC50 [1]: 259 ± 41 nM
Emax [2, 6]: 73 ± 2%
Emax [3]: 47 ± 6%
IC50 [3, 9]: 2460 ± 1210 nM
Emax ([4]; mean ± S.D., n = 3): 51 ± 1%

Cc1cc(NS(C)(=O)=O)ccc1-c1nc(NCC(c2ccccc2)c2ccncc2)c2ccccc2n1 (stereo not shown) [Compound 29, N-(3-methyl-4-(4-((2-phenyl-2-(pyridin-4-yl)ethyl)amino)quinazolin-2-yl)phenyl)methanesulfonamide]
NE Uptake Emax [1]: 71 ± 3 % I
EC50 [1]: 31 ± 7 nM
Emax [1]: 71 ± 3%
IC50 [1]: 31 ± 7 nM
Emax [2, 6]: 74 ± 4%
DA Uptake Emax [2]: 74 ± 4 % I
EC50 [2]: 7.4 ± 2 nM
Emax [3]: 72 ± 7%
IC50 [3, 9]: 3150 ± 1110 nM
Emax ([4]; mean ± S.D., n = 3): 58 ± 3%
5HT Uptake Emax [4]: 58 ± 3 % I
EC50 [4]: 8 ± 2.8 nM

c1ccc(C(CNc2nc(-c3cnc4nccn4c3)nc3ccccc23)c2ccccn2)cc1 (stereo not shown) [SRI-30507]
Emax [1]: 77 ± 2%
IC50 [1]: 132 ± 16 nM
Emax [2, 6]: 71 ± 2%
Emax [3]: 62 ± 7%
IC50 [3, 9]: 4800 ± 1810 nM
Emax ([4]; mean ± S.D., n = 3): 54 ± 2%

Cn1cc2cc(-c3nc(NCC(c4ccccc4)c4ccccc4)c4ccccc4n3)ccc2n1 [SRI-29776]
Emax [1]: 71 ± 3%
IC50 [1]: 229 ± 43 nM
Emax [2, 6]: 69 ± 2%
Emax [3]: 58 ± 3%
IC50 [3, 9]: 6090 ± 970 nM
Emax ([4]; mean ± S.D., n = 3): 61 ± 2%

c1ccc(C(CNc2nc(-c3ccc4nccn4c3)nc3ccccc23)C2CCCCC2)cc1 (stereo not shown) [SRI-30513]
Emax [1]: 65 ± 4%
IC50 [1]: 153 ± 55 nM
Emax [2, 6]: 72 ± 2%
Emax [3]: 50 ± 4%
IC50 [3, 9]: 2970 ± 1030 nM
Emax ([4]; mean ± S.D., n = 3): 59 ± 4%

CNc1ncc(-c2nc(NCC(c3ccccc3)c3ccccc3)c3ccccc3n2)cn1 [SRI-29554]
Emax [1]: 78 ± 2%
IC50 [1]: 179 ± 27 nM
Emax [2, 6]: 71 ± 1%
Emax [3]: 59 ± 6%
IC50 [3, 9]: 980 ± 460 nM
Emax ([4]; mean ± S.D., n = 3): 60 ± 3%

CSc1ncc(-c2nc(NCC(c3ccccc3)c3ccccc3)c3ccccc3n2)cn1 [SRI-29338]
Emax [1]: 62 ± 3%
IC50 [1]: 204 ± 47 nM
Emax [2, 6]: 71 ± 2%
Emax [3]: 63 ± 4%
IC50 [3, 9]: 1180 ± 930 nM
Emax ([4]; mean ± S.D., n = 3): 52 ± 3%

c1ccc(C(CNc2nc(-c3ccc4nccn4c3)nc3ccccc23)c2cccnc2)cc1 (stereo not shown) [SRI-30946]
Emax [1]: 75 ± 3%
IC50 [1]: 78 ± 17 nM
Emax [2, 6]: 70 ± 2%
Emax [3]: 44 ± 3%
IC50 [3, 9]: 1170 ± 320 nM
Emax ([4]; mean ± S.D., n = 3): 59 ± 3%

OC(CNc1nc(-c2ccc3[nH]ccc3c2)nc2ccccc12)(c1ccccc1)c1ccccc1 [SRI-29983]
Emax [1]: 73 ± 6%
IC50 [1]: 203 ± 79 nM
Emax [2, 6]: 70 ± 2%
Emax [3]: 55 ± 3%
IC50 [3, 9]: 1290 ± 340 nM
Emax ([4]; mean ± S.D., n = 3): 57 ± 2%

CS(=O)(=O)Nc1ccc(-c2nc(NCC(O)(c3ccccc3)c3ccccc3)c3ccccc3n2)cc1 [Compound 4, N-(4-(4-((2-hydroxy-2,2-diphenylethyl)amino)quinazolin-2-yl)phenyl)methanesulfonamide]
NE Uptake Emax [1]: 70 ± 2 % I
EC50 [1]: 426 ± 49 nM
Emax [1]: 70 ± 2%
IC50 [1]: 426 ± 49 nM
Emax [2, 6]: 70 ± 2%
DA Uptake Emax [2]: 70 ± 2 % I
EC50 [2]: 11 ± 2 nM
Emax [3]: 47 ± 7%
IC50 [3, 9]: 970 ± 650 nM
Emax ([4]; mean ± S.D., n = 3): 55 ± 3%
5HT Uptake Emax [4]: 55 ± 3 % I
EC50 [4]: 50 ± 14 nM
